Assay results reported in patent US20100099561A1, “HETEROBICYCLIC ALKYLTHIO-BRIDGED ISOXAZOLINES” (E.I. DU PONT DE NEMOURS AND COMPANY, priority 2008, published 2010).

Columns and labels:
Assay type in all cases: in vivo
[1] = system: barnyardgrass (Echinochloa crus-galli); assay: Test A preemergence, barnyardgrass; conditions: 0 to 100 scale (0 no effect, 100 complete control)
From the text: (§1) Seeds of barnyardgrass (Echinochloa crus-galli), large crabgrass (Digitaria sanguinalis), giant foxtail (Setaria faberi), morningglory (Ipomoea spp.), pigweed (Amaranthus retroflexus), velvetleaf (Abutilon theophrasti), wheat (Triticum aestivum), and corn (Zea mays) were planted into a blend of loam soil and sand and treated preemergence with a directed soil spray using test chemicals formulated in a non-phytotoxic solvent mixture which included a surfactant. At the same time these species were also treated with postemergence applications of test compounds formulated in the same manner. Plants ranged in height from two to ten cm and were in the one- to two-leaf stage for the postemergence treatment. Treated plants and untreated controls were maintained in a greenhouse for approximately ten days, after which time all treated plants were compared to untreated controls and visually evaluated for injury. Plant response ratings, summarized in Table A, are based on a 0 to 100 scale where 0 is no effect and 100 is complete control. A dash (-) response means no test result.

[2] = system: large crabgrass (Digitaria sanguinalis); assay: Test A preemergence, large crabgrass; conditions: 0 to 100 scale (0 no effect, 100 complete control)
From the text: as §1

[3] = system: giant foxtail (Setaria faberi); assay: Test A preemergence, giant foxtail; conditions: 0 to 100 scale (0 no effect, 100 complete control)
From the text: as §1

[4] = system: morningglory (Ipomoea spp.); assay: Test A preemergence, morningglory; conditions: 0 to 100 scale (0 no effect, 100 complete control)
From the text: as §1

[5] = system: pigweed (Amaranthus retroflexus); assay: Test A preemergence, pigweed; conditions: 0 to 100 scale (0 no effect, 100 complete control)
From the text: as §1

[6] = system: velvetleaf (Abutilon theophrasti); assay: Test A preemergence, velvetleaf; conditions: 0 to 100 scale (0 no effect, 100 complete control)
From the text: as §1

[7] = system: wheat (Triticum aestivum); assay: Test A preemergence, wheat; conditions: 0 to 100 scale (0 no effect, 100 complete control)
From the text: as §1

corn (Zea mays) [8] = assay: Test A preemergence, corn; conditions: 0 to 100 scale (0 no effect, 100 complete control)
From the text: as §1

[9] = system: barnyardgrass (Echinochloa crus-galli); assay: Test A postemergence, barnyardgrass; conditions: 0 to 100 scale (0 no effect, 100 complete control)
From the text: as §1

[10] = system: large crabgrass (Digitaria sanguinalis); assay: Test A postemergence, large crabgrass; conditions: 0 to 100 scale (0 no effect, 100 complete control)
From the text: as §1

[11] = system: giant foxtail (Setaria faberi); assay: Test A postemergence, giant foxtail; conditions: 0 to 100 scale (0 no effect, 100 complete control)
From the text: as §1

[12] = system: morningglory (Ipomoea spp.); assay: Test A postemergence, morningglory; conditions: 0 to 100 scale (0 no effect, 100 complete control)
From the text: as §1

[13] = system: pigweed (Amaranthus retroflexus); assay: Test A postemergence, pigweed; conditions: 0 to 100 scale (0 no effect, 100 complete control)
From the text: as §1

[14] = system: velvetleaf (Abutilon theophrasti); assay: Test A postemergence, velvetleaf; conditions: 0 to 100 scale (0 no effect, 100 complete control)
From the text: as §1

[15] = system: wheat (Triticum aestivum); assay: Test A postemergence, wheat; conditions: 0 to 100 scale (0 no effect, 100 complete control)
From the text: as §1

corn (Zea mays) [16] = assay: Test A postemergence, corn; conditions: 0 to 100 scale (0 no effect, 100 complete control)
From the text: as §1

rice (Oryza sativa) = assay: Test B flooded paddy test, rice; conditions: Flood, scale 0 to 100
From the text: (§2) Plant species in the flooded paddy test consisted of rice (Oryza sativa), umbrella sedge (Cyperus difformis), ducksalad (Heteranthera limosa) and barnyardgrass (Echinochloa crus-galli) grown to the 2-leaf stage for testing. At time of treatment, test pots were flooded to 3 cm above the soil surface, treated by application of test compounds directly to the paddy water, and then maintained at that water depth for the duration of the test. Treated plants and controls were maintained in a greenhouse for 13 to 15 days, after which time all species were compared to controls and visually evaluated. Plant response ratings, summarized in Table B, are based on a scale of 0 to 100 where 0 is no effect and 100 is complete control. A dash (-) response means no test result.

[17] = system: umbrella sedge (Cyperus difformis); assay: Test B flooded paddy test, umbrella sedge; conditions: Flood, scale 0 to 100
From the text: as §2

[18] = system: ducksalad (Heteranthera limosa); assay: Test B flooded paddy test, ducksalad; conditions: Flood, scale 0 to 100
From the text: as §2

[19] = system: barnyardgrass (Echinochloa crus-galli); assay: Test B flooded paddy test, barnyardgrass; conditions: Flood
From the text: as §2

[20] = 250 g ai/ha, scale 0 to 100 (0 no effect, 100 complete control)

## CC1(C)CC([S+]([O-])Cc2c(C(F)(F)C(F)(F)F)nc3n(c2=O)CCCC3)=NO1 (centres unmarked) [Compound 19]
[1]; 125 g ai/ha
  Plant response rating, Barnyardgrass: 0
[1]; 500 g ai/ha
  Plant response rating, Barnyardgrass: 80
[2]; 125 g ai/ha
  Plant response rating, Crabgrass, Large: 0
[2]; 500 g ai/ha
  Plant response rating, Crabgrass, Large: 80
[3]; 125 g ai/ha
  Plant response rating, Foxtail, Giant: 0
[3]; 500 g ai/ha
  Plant response rating, Foxtail, Giant: 80
[4]; 125 g ai/ha
  Plant response rating, Morningglory: 0
[4]; 500 g ai/ha
  Plant response rating, Morningglory: 60
[5]; 125 g ai/ha
  Plant response rating, Pigweed: 0
[5]; 500 g ai/ha
  Plant response rating, Pigweed: 20
[6]; 125 g ai/ha
  Plant response rating, Velvetleaf: 0
[6]; 500 g ai/ha
  Plant response rating, Velvetleaf: 0
[7]; 125 g ai/ha
  Plant response rating, Wheat: 0
[7]; 500 g ai/ha
  Plant response rating, Wheat: 20
Corn (Zea mays) [8]; 500 g ai/ha
  Plant response rating, Corn: 20
[9]; 125 g ai/ha
  Plant response rating, Barnyardgrass: 10
[9]; 500 g ai/ha
  Plant response rating, Barnyardgrass: 70
[10]; 125 g ai/ha
  Plant response rating, Crabgrass, Large: 0
[10]; 500 g ai/ha
  Plant response rating, Crabgrass, Large: 30
[11]; 125 g ai/ha
  Plant response rating, Foxtail, Giant: 0
[11]; 500 g ai/ha
  Plant response rating, Foxtail, Giant: 50
[12]; 125 g ai/ha
  Plant response rating, Morningglory: 0
[12]; 500 g ai/ha
  Plant response rating, Morningglory: 20
[13]; 125 g ai/ha
  Plant response rating, Pigweed: 0
[13]; 500 g ai/ha
  Plant response rating, Pigweed: 10
[14]; 125 g ai/ha
  Plant response rating, Velvetleaf: 0
[14]; 500 g ai/ha
  Plant response rating, Velvetleaf: 20
[15]; 125 g ai/ha
  Plant response rating, Wheat: 0
[15]; 500 g ai/ha
  Plant response rating, Wheat: 20
Corn (Zea mays) [16]; 125 g ai/ha
  Plant response rating, Corn: 0
Corn (Zea mays) [16]; 500 g ai/ha
  Plant response rating, Corn: 40
Rice (Oryza sativa); 31 g ai/ha
  Plant response rating, Rice: 0
Rice (Oryza sativa); 62 g ai/ha
  Plant response rating, Rice: 0
Rice (Oryza sativa); 125 g ai/ha
  Plant response rating, Rice: 0
Rice (Oryza sativa); 250 g ai/ha
  Plant response rating, Rice: 0
[17]; 31 g ai/ha
  Plant response rating, Sedge, Umbrella: 0
[17]; 62 g ai/ha
  Plant response rating, Sedge, Umbrella: 0
[17]; 125 g ai/ha
  Plant response rating, Sedge, Umbrella: 0
[17]; 250 g ai/ha
  Plant response rating, Sedge, Umbrella: 0
[18]; 31 g ai/ha
  Plant response rating, Ducksalad: 0
[18]; 62 g ai/ha
  Plant response rating, Ducksalad: 0
[18]; 125 g ai/ha
  Plant response rating, Ducksalad: 0
[18]; 250 g ai/ha
  Plant response rating, Ducksalad: 0
[19]; 31 g ai/ha, scale 0 to 100
  Plant response rating, Barnyardgrass: 0
[19]; 62 g ai/ha, scale 0 to 100
  Plant response rating, Barnyardgrass: 0
[19]; 125 g ai/ha, scale 0 to 100
  Plant response rating, Barnyardgrass: 0
[19]; [20]
  Plant response rating, Barnyardgrass: 0

## Cn1c(=O)c(CS(=O)(=O)C2=NOC(C)(C)C2)nc2ccccc21 [Compound 23]
[1]; 125 g ai/ha
  Plant response rating, Barnyardgrass: 20
[1]; 500 g ai/ha
  Plant response rating, Barnyardgrass: 40
[2]; 125 g ai/ha
  Plant response rating, Crabgrass, Large: 10
[2]; 500 g ai/ha
  Plant response rating, Crabgrass, Large: 70
[3]; 125 g ai/ha
  Plant response rating, Foxtail, Giant: 30
[3]; 500 g ai/ha
  Plant response rating, Foxtail, Giant: 80
[4]; 125 g ai/ha
  Plant response rating, Morningglory: 0
[5]; 125 g ai/ha
  Plant response rating, Pigweed: 0
[5]; 500 g ai/ha
  Plant response rating, Pigweed: 10
[6]; 125 g ai/ha
  Plant response rating, Velvetleaf: 0
[6]; 500 g ai/ha
  Plant response rating, Velvetleaf: 0
[7]; 125 g ai/ha
  Plant response rating, Wheat: 0
[7]; 500 g ai/ha
  Plant response rating, Wheat: 0
Corn (Zea mays) [8]; 125 g ai/ha
  Plant response rating, Corn: 0
Corn (Zea mays) [8]; 500 g ai/ha
  Plant response rating, Corn: 0
[9]; 125 g ai/ha
  Plant response rating, Barnyardgrass: 40
[9]; 500 g ai/ha
  Plant response rating, Barnyardgrass: 60
[10]; 125 g ai/ha
  Plant response rating, Crabgrass, Large: 30
[10]; 500 g ai/ha
  Plant response rating, Crabgrass, Large: 60
[11]; 125 g ai/ha
  Plant response rating, Foxtail, Giant: 10
[11]; 500 g ai/ha
  Plant response rating, Foxtail, Giant: 60
[12]; 125 g ai/ha
  Plant response rating, Morningglory: 0
[12]; 500 g ai/ha
  Plant response rating, Morningglory: 0
[13]; 125 g ai/ha
  Plant response rating, Pigweed: 0
[13]; 500 g ai/ha
  Plant response rating, Pigweed: 0
[14]; 125 g ai/ha
  Plant response rating, Velvetleaf: 0
[14]; 500 g ai/ha
  Plant response rating, Velvetleaf: 0
[15]; 125 g ai/ha
  Plant response rating, Wheat: 0
[15]; 500 g ai/ha
  Plant response rating, Wheat: 0
Corn (Zea mays) [16]; 125 g ai/ha
  Plant response rating, Corn: 0
Corn (Zea mays) [16]; 500 g ai/ha
  Plant response rating, Corn: 0
Rice (Oryza sativa); 62 g ai/ha
  Plant response rating, Rice: 0
Rice (Oryza sativa); 250 g ai/ha
  Plant response rating, Rice: 0
[17]; 62 g ai/ha
  Plant response rating, Sedge, Umbrella: 0
[17]; 250 g ai/ha
  Plant response rating, Sedge, Umbrella: 0
[18]; 62 g ai/ha
  Plant response rating, Ducksalad: 0
[18]; 250 g ai/ha
  Plant response rating, Ducksalad: 0
[19]; 62 g ai/ha, scale 0 to 100
  Plant response rating, Barnyardgrass: 0
[19]; [20]
  Plant response rating, Barnyardgrass: 0
